# Test results from publication PMC9250534, “Synthesis and direct assay of large macrocycle diversities by combinatorial late-stage modification at picomole scale” (Nature Communications, 2022).
# Numbered stars: 1 amine (or outer) side, 2 acyl side, 3 side chain; on linkers, the order of the positions; unused ones are H or OH. Bridge positions count the residues as written; N and C are the ends. Square brackets hold non-standard residues; d marks the D form. Peptide text beside a SMILES is read from it. * marks the point of attachment. Pyrazinoyl(5-oxo-4H) = O=C(c1c[nH]c(=O)cn1)*; 1,2,3Thiadiazole5CO(4-Me) = Cc1nnsc1C(=O)*; Isoorotoyl = O=C(c1c[nH]c(=O)[nH]c1=O)*; 2Thenoyl(5-Cl) = O=C(c1ccc(Cl)s1)*; Cysteamide = C(CS[*:3])N[*:1]; X3 = O=C(Cc1c[nH]c2ccccc12)*; 4Amb = NCc1ccc(C(=O)O)cc1; Isovaleryl = CC(C)CC(=O)*; Orn = NCCC[C@H](N)C(=O)O; dDap = NC[C@@H](N)C(=O)O; 2Furoyl = O=C(c1ccco1)*; Bz = O=C(c1ccccc1)*; Mpa = O=C(O)CCS
# Target: T1, thrombin (Homo sapiens, UniProt P00734)
# T1 construct: consists of two polypeptide chains of 36 (light chain) and 259 amino acid
# Assay: Thrombin inhibition screen of crude macrocycle reactions (residual thrombin activity, fluorogenic substrate Z-Gly-Gly-Arg-AMC)
# Assay type: biochemical
# Conditions: 10 µM macrocycle concentration; for percent residual thrombin activity: crude reactions, Library 1a-l, scaffold AA1-AA2-AA3 combined with 1-16 or '-'; for % thrombin activity, Original screen / % thrombin activity, Repeat screen: macrocycles containing acid 14, crude reaction; for % thrombin activity, Repeat screen: replicate reaction and screen
# Procedure, shortened: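 Each crude macrocycle (10 μM) was preincubated 10 min at room temperature with thrombin (2 nM final) in Tris-Cl pH 7.4 containing NaCl, MgCl2, CaCl2, 0.1% BSA, 0.01% Triton X-100 and 0.6% DMSO. Z-Gly-Gly-Arg-AMC (50 μM final) was then added. Inhibition came from fluorescence slopes relative to DMSO-only controls.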
Compound,percent residual thrombin activity,"% thrombin activity, Original screen","% thrombin activity, Repeat screen"
CC[C@H](C)[C@@H]1NC(=O)CCSSCCNC(=O)[C@H]2CCCN(C2)C(=O)[C@H](CCCCN)NC1=O [I-D1-B4/-],114.483%,,
NC(=O)CCC1NC(=O)C2CCCN(C2)C(=O)C(CNC(=O)c2ccc(Cl)s2)NC(=O)CCSSCCNC1=O (centres unmarked) [X D3 B4 Q],,94.4%,90.2%
C[C@H]1NC(=O)CCSSCCNC(=O)c2ccc(cc2)CNC(=O)[C@@H]2C[C@H](NC(=O)c3ccc(Cl)s3)CN2C1=O [X a D5 B3],,110.0%,116.2%
CC(C)CC(=O)NCCCC[C@@H]1NC(=O)[C@@H](Cc2c[nH]c3ccccc23)NC(=O)[C@H]2CCCN(C2)C(=O)CCSSCCNC1=O [B4-W-D1/8],98.2761%,,
CC(C)CC(=O)NCCC[C@@H]1NC(=O)[C@H](CO)NC(=O)[C@@H]2CCCN2C(=O)CCSSCCNC1=O [B1-S-D2/8] ([Mpa]PS[Orn](Isovaleryl)-Cysteamide; disulfide 1-C),106.543%,,
O=C1CCSSCCNC(=O)C2(CC2)CNC(=O)C2(CCN(C(=O)c3ccc(Cl)s3)CC2)NC(=O)[C@@H](Cc2c[nH]c3ccccc23)N1 [X w D6 B6],,89.3%,97.3%
NC(=O)CC[C@@H]1NC(=O)CCSSCCNC(=O)C2(CCN(C(=O)c3ccc(Cl)s3)CC2)NC(=O)CCNC1=O [X Q B2 D6],,97.4%,98.1%
O=C1CCSSCCNC(=O)C(Cc2c[nH]c3ccccc23)NC(=O)C2CC(NC(=O)c3ccc(Cl)s3)CN2C(=O)CCN1 (centres unmarked) [X B2 D5 w],,95.8%,101.8%
CC(C)CC1NC(=O)C2CC(NC(=O)c3ccc(Cl)s3)CN2C(=O)CCSSCCNC(=O)C2CCCN(C2)C1=O (centres unmarked) [X D5 L B4],,94.2%,89.4%
O=C1CCSSCCNC(=O)C2(CCN(C(=O)c3ccc(Cl)s3)CC2)NC(=O)[C@H](Cc2c[nH]cn2)NC(=O)CCN1 [X B2 H D6],,96.8%,101.7%
O=C1CCSSCCNC(=O)[C@@H](CNC(=O)c2ccc(Cl)s2)NC(=O)[C@H]2CCCN(C2)C(=O)[C@H](Cc2c[nH]c3ccccc23)N1 [X W B4 D4],,108.0%,112.0%
O=C(NCCCC[C@@H]1NC(=O)[C@@H](Cc2c[nH]c3ccccc23)NC(=O)[C@H]2CCCN(C2)C(=O)CCSSCCNC1=O)c1ccccc1 [B4-w-D1/1],105.33%,,
O=C1CCSSCCNC(=O)C2(CC2)CNC(=O)[C@H](Cc2c[nH]cn2)NC(=O)[C@H](CCCCNC(=O)c2cnccn2)N1 [D1-H-B6/2],113.964%,,
O=C1CCSSCCNC(=O)C(Cc2c[nH]c3ccccc23)NC(=O)C(CNC(=O)c2ccc(Cl)s2)NC(=O)C2(CC2)CN1 (centres unmarked) [X B6 D3 w],,92.5%,95.8%
Cc1nnsc1C(=O)NCCCC[C@@H]1NC(=O)[C@H](Cc2ccc(O)cc2)NC(=O)CCSSCCNC(=O)[C@H]2CCCN(C2)C1=O [Y-D1-B4/15],104.272%,,
O=C(COc1ccccc1)NCCCC[C@@H]1NC(=O)CCSSCCNC(=O)c2ccc(cc2)CNC(=O)[C@H](CO)NC1=O [D1-S-B3/13],115.568%,,
O=C1CCSSCCNC(=O)[C@@H]2CCCN2C(=O)[C@@H](Cc2c[nH]c3ccccc23)NC(=O)[C@@H](CNC(=O)c2ccc(Cl)s2)N1 [X D4 w B1] ([Mpa][dDap](2Thenoyl(5-Cl))[dW]P-Cysteamide; disulfide 1-C),,68.9%,70.9%
O=C1CCSSCCNC(=O)[C@H](CCCCNC(=O)c2ccc(Cl)s2)NC(=O)[C@@H](Cc2ccc(O)cc2)NC(=O)c2ccc(cc2)CN1 [X B3 y D1],,106.6%,108.9%
NCCCC[C@@H]1NC(=O)[C@@H](CO)NC(=O)[C@@H]2CCCN2C(=O)CCSSCCNC1=O [B1-s-D1/-] ([Mpa]P[dS]K-Cysteamide; disulfide 1-C),113.487%,,
C[C@H]1NC(=O)CCSSCCNC(=O)[C@@H]2CCCN2C(=O)[C@H](CCCCNC(=O)c2ccc(Cl)s2)NC1=O [a-D1-B1/14] ([Mpa][dA]K(2Thenoyl(5-Cl))P-Cysteamide; disulfide 1-C),109.871%,,
CC(C)C1NC(=O)C2(CCN(C(=O)c3ccc(Cl)s3)CC2)NC(=O)CCSSCCNC(=O)C2CCCN(C2)C1=O (centres unmarked) [X D6 V B4],,81.5%,80.4%
O=C1CCSSCCNC(=O)c2ccc(cc2)CNC(=O)[C@H](Cc2c[nH]c3ccccc23)NC(=O)[C@H](CCCNC(=O)c2ccccc2)N1 [D2-W-B3/1] ([Mpa][Orn](Bz)W[4Amb]-Cysteamide; disulfide 1-C),105.41%,,
CC(C)CC(=O)NCCCC[C@@H]1NC(=O)C2(CC2)CNC(=O)CCSSCCNC(=O)[C@H](CCC(N)=O)NC1=O [B6-D1-Q/8],101.194%,,
NC(=O)CC[C@@H]1NC(=O)CCSSCCNC(=O)[C@H](CCCCNC(=O)Cc2c[nH]c3ccccc23)NC(=O)C2(CC2)CNC1=O [Q-B6-D1/12],103.639%,,
NC(=O)CC[C@@H]1NC(=O)CCSSCCNC(=O)[C@H](CCCCNC(=O)c2ccc(Cl)s2)NC(=O)C2(CC2)CNC1=O [Q-B6-D1/14],99.4946%,,
C[C@H]1NC(=O)C2(CCN(C(=O)c3ccc(Cl)s3)CC2)NC(=O)c2cccc(c2)CNC(=O)CCSSCCNC1=O [X B5 D6 a],,86.2%,89.2%

# Second part, the compound after the results:
percent residual thrombin activity,"% thrombin activity, Original screen","% thrombin activity, Repeat screen",Compound
113.677%,,,CC[C@H](C)[C@@H]1NC(=O)CCNC(=O)[C@H](CCCNC(=O)c2c[nH]c(=O)[nH]c2=O)NC(=O)CCSSCCNC1=O [D2-B2-I/11]
,108.5%,109.5%,C[C@H]1NC(=O)[C@H](CCCNC(=O)c2ccc(Cl)s2)NC(=O)CCSSCCNC(=O)CCNC1=O [X D2 a B2]
,110.0%,114.7%,CC[C@H](C)[C@@H]1NC(=O)CNC(=O)CCNC(=O)[C@@H](NC(=O)c2ccc(Cl)s2)CSSCCNC1=O [C B2 G I]
105.611%,,,"Cc1nnsc1C(=O)NCCCC[C@@H]1NC(=O)[C@H](C(C)C)NC(=O)CCSSCCNC(=O)[C@@H]2CCCN2C1=O [v-D1-B1/15] ([Mpa]VK(1,2,3Thiadiazole5CO(4-Me))P-Cysteamide; disulfide 1-C)"
105.361%,,,O=C1CCNC(=O)[C@H](CO)NC(=O)[C@H](CCCNC(=O)c2ccc(Cl)s2)NC(=O)CCSSCCN1 [D2-S-B2/14]
105.267%,,,CC(C)[C@@H]1NC(=O)CCSSCCNC(=O)[C@@H]2CCCN2C(=O)[C@H](CCCCNC(=O)Cc2c[nH]c3ccccc23)NC1=O [V-D1-B1/12] ([Mpa]VK(X3)P-Cysteamide; disulfide 1-C)
99.656%,,,CC(C)[C@@H]1NC(=O)CCSSCCNC(=O)[C@@H]2CCCN2C(=O)[C@H](CCCCNC(=O)c2c[nH]c(=O)cn2)NC1=O [v-D1-B1/9] ([Mpa]VK(Pyrazinoyl(5-oxo-4H))P-Cysteamide; disulfide 1-C)
110.064%,,,NC(=O)CC[C@@H]1NC(=O)[C@@H]2CCCN2C(=O)CCSSCCNC(=O)[C@H](CCCNC(=O)c2c[nH]c(=O)[nH]c2=O)NC1=O [B1-Q-D2/11] ([Mpa]PQ[Orn](Isoorotoyl)-Cysteamide; disulfide 1-C)
115.288%,,,O=C1CCNC(=O)[C@H](CO)NC(=O)[C@H](CCCNC(=O)c2cnccn2)NC(=O)CCSSCCN1 [D2-S-B2/2]
108.833%,,,COc1ccc(C(=O)NCCC[C@@H]2NC(=O)CCSSCCNC(=O)[C@H](C(C)C)NC(=O)[C@H]3CCCN(C3)C2=O)cn1 [D2-B4-V/10]
112.001%,,,O=C1CCNC(=O)[C@@H](CO)NC(=O)CCSSCCNC(=O)[C@H](CCCCNC(=O)c2ccco2)N1 [s-B2-D1/16]
102.421%,,,CC(C)[C@@H]1NC(=O)CCSSCCNC(=O)[C@@H]2CCCN2C(=O)[C@H](CCCCNC(=O)c2ccco2)NC1=O [v-D1-B1/16] ([Mpa]VK(2Furoyl)P-Cysteamide; disulfide 1-C)
102.581%,,,CC(C)[C@@H]1NC(=O)[C@H]2CCCN(C2)C(=O)[C@H](CCCNC(=O)c2ccc(Cl)s2)NC(=O)CCSSCCNC1=O [D2-B4-V/14]
97.6394%,,,CC(C)C[C@@H]1NC(=O)CCSSCCNC(=O)[C@H](CCCNC(=O)c2ccc(Cl)s2)NC(=O)[C@H]2CCCN(C2)C1=O [L-B4-D2/14]
,86.0%,83.0%,CC[C@H](C)[C@@H]1NC(=O)[C@H](CCCNC(=O)c2ccc(Cl)s2)NC(=O)c2cccc(c2)CNC(=O)CCSSCCNC1=O [X B5 D2 I]
106.564%,,,CC[C@H](C)[C@@H]1NC(=O)[C@H](CCCNC(=O)COc2ccccc2)NC(=O)c2cccc(c2)CNC(=O)CCSSCCNC1=O [B5-D2-I/13]
107.119%,,,CC(C)[C@@H]1NC(=O)CCSSCCNC(=O)[C@@H]2CCCN2C(=O)[C@H](CCCCNC(=O)c2c[nH]c(=O)cn2)NC1=O [V-D1-B1/9] ([Mpa]VK(Pyrazinoyl(5-oxo-4H))P-Cysteamide; disulfide 1-C)
,91.0%,93.6%,CCC(C)C1NC(=O)C(CCCCNC(=O)c2ccc(Cl)s2)NC(=O)CCSSCCNC(=O)C2(CC2)CNC1=O (centres unmarked) [X D1 I B6]
107.867%,,,CC(C)[C@@H]1NC(=O)[C@H](CCCCNC(=O)c2ccco2)NC(=O)CCSSCCNC(=O)C2(CC2)CNC1=O [D1-V-B6/16]
